Results as given in paper PMC4795541, “A Rapid and Quantitative Flow Cytometry Method for the Analysis of Membrane Disruptive Antimicrobial Activity” (PLoS ONE, 2016).
Converted amounts (≈) assume the structure as drawn. Where two headings read alike, the source gives them in different places. Marks after values point to notes of the source that are not given here. Where a SMILES comes first, the peptide text is derived from it. Where no end group is shown, it is not given here. [ ]: non-standard residue; d: D form. Phe(ol) = N[C@H](CO)Cc1ccccc1; Dab = NCC[C@H](N)C(=O)O; Dap = NC[C@H](N)C(=O)O; Aib = CC(C)(N)C(=O)O

Assays:
F. nucleatum ATCC 25586 [1] = tested on: F. nucleatum ATCC 25586
From the text: (§1) The bacterial strains; Fusobacterium nucleatum ATCC 25586, Streptococcus mutans Ingbritt, Staphylococcus aureus (MSSA) ATCC 29213; Staphylococcus aureus (MRSA) ATCC 43300; Enterococcus faecalis ATCC 29212; Enterobacter aerogenes ATCC 13048; Pseudomonas aeruginosa strain PAO1-LAC, ATCC 47085; Klebsiella pneumoniae ATCC 13883; Acinetobacter baumannii strain 2208, ATCC 19606; Escherichia coli ATCC 25922 lyophilised or glycerol stocks were obtained from the culture collection of the Oral Health Cooperative Research Centre, The Melbourne Dental School, University of Melbourne, Australia. These strains were selected for this study as they are widely used in antimicrobial studies and are considered to be important pathogens and major targets for antibiotic resistant studies. Bacteria were grown aerobically and maintained by passage at ambient temperature (E. coli, K. pneumoniae, A. baumannii and S. aureus strains) or at 37°C (P. aeruginosa, E. faecalis and E. aerogenes) on horse blood agar (10% v/v defibrinated horse blood, 4.4% w/v Oxoid Blood Agar Base No. 2). S. mutans and F. nucleatum were grown anaerobically (MK3 anaerobic workstation, Don Whitley Scientific Limited, England) and maintained by passage at 37°C on Todd Hewitt agar (3.6% w/v Oxoid Todd-Hewitt Broth, 1.5% w/v sucrose, 1.5% w/v BactoTM Agar, 0.8% w/v Oxoid Yeast Extract) or horse blood agar, respectively. For the antimicrobial peptide assays a 20 mL starter culture was produced by taking single colonies from blood or Todd Hewitt agar plates, respectively, to inoculate either: Luria Broth (LB; 1% w/v BactoTM Tryptone, 1% w/v NaCl, 0.5% w/v Oxoid Yeast Extract, pH 7.5, Thermo Scientific Pty, Ltd, Sydney, Australia) for bacteria; E. coli, K. pneumoniae, P. aeruginosa, A. baumannii, E. faecalis, E. aerogenes and S. aureus which were grown aerobically at 37°C, or Todd Hewitt broth (3.6% w/v Oxoid Todd-Hewitt Broth, 1.5% w/v sucrose, 0.8% w/v Oxoid Yeast 9 Extract) for S. mutans, or Brain Heart Infusion broth (BHI; 3.7% w/v Oxoid BHI, 0.05% w/v L-cysteine) for F. nucleatum which were both grown anaerobically at 37°C. After overnight incubation, 0.5–2.0 mL of the starter culture was used to inoculate the appropriate fresh broth (200 mL) and growth monitored at 650 nm using a spectrophotometer (model 275E; Perkin-Elmer, Sydney, Australia) with culture purity checked by microscopic examination and culture. Bacteria were harvested during late exponential growth phase and viability and bacteria/mL determined using a BacLight viability kit (Invitrogen, Sydney, Australia) and a Quanta SC-MPL flow cytometer (Beckman coulter Pty, Ltd, Sydney, Australia).
(§2) Antibacterial assays were undertaken to determinate the minimum inhibitory concentration (MIC), minimum bactericidal concentration (MBC) and minimum membrane disruptive concentration (MDC) of each of the antimicrobial peptides (AMP) and AMP analogues (S1 Table). For each bacterim a stock solution (2.5 × 10^6 cells/mL) in the respective media was made and an aliquot incubated with AMPs within 15 minutes from viable cell count and stock preparation. All AMPs were dissolved in DMSO and a 500 μM stock solution prepared by adding the respective media and serial dilutions (250–0.244 μM) of the AMP in media (100 μL/well) made just prior addition of bacteria. […] One hundred microliter aliquots of the bacterial stock solution (2.5 × 10^5 cells/well) were added to the AMP serial dilutions and incubated at 37°C for 90 min. Assay preparation and incubations were conducted in aerobic or anaerobic conditions dependent on the bacteria. Bacteria were also incubated in the absence of AMP to serve as a growth control for the assay. After the 90 minute incubation period the antimicrobial activity (MIC, MBC and MDC) was determined as follows;
(§3) For MIC the CLSI broth microdilution assay was followed as we have previously described.

S. mutans Ingbritt [2] = tested on: S. mutans Ingbritt
From the text: as §1, §2, §3

F. nucleatum ATCC 25586 [3] = tested on: F. nucleatum ATCC 25586; remark: listed apart in the source
From the text: as §1, §2
(§4) For determination of MBC, the CLSI protocol was followed, with the modifications being that due to the rapid action of the AMPs the assay incubation time was shortened from 16–20 hours to 90 minutes.

S. mutans Ingbritt [4] = tested on: S. mutans Ingbritt; remark: listed apart in the source
From the text: as §1, §2, §4

sheep red blood cells = assay: Hemolysis assay; type: cell-based; settings: for Therapeutic Index (hemolysis): HC50/MDC50 (F. nucleatum), given as x : 1
Method: Fresh sheep red blood cells in Alsever’s solution (RBCs, Equicell, Victoria, Australia) were diluted 1 in 20 in PBS (pH 7.4), pelleted by centrifugation, and washed three times in PBS (1000 g, 10 min). The RBCs were counted using a cell counter (Coulter Particle Counter Z series, Beckman Coulter) and diluted to a final concentration of 2 × 10^7 cells/mL. […] Following incubation, the RBCs were pelleted centrifuged (1000 g, 10 min) and the amount of haemoglobin in 100 μL aliquots determined by measuring the absorbance at 405 nm using a microplate reader (PerkinElmer 1420 Multilabel Counter VICTOR3). Positive and negative controls for hemolysis were taken as RBC lysed with 0.5% Triton X-100 (1:1 v/v) and RBC suspension in PBS, respectively. The percentage of hemolysis was calculated using the following formula: % Hemolysis = [(A405 test sample—A405 negative control) / (A405 positive control—A405 negative control)] × 100
The percentage hemolysis was plotted against peptide concentration and linear regression analysis was used to determine the hemolytic concentration needed to lyse 50% (HC50) of RBCs.

[5] = F. nucleatum ATCC 25586, 2.5 × 10^5 cells/well, 90 min peptide/bacteria incubation at 37°C, then growth at OD650, average of 3 assays ± SD
[6] = S. mutans Ingbritt, 90 min peptide/bacteria incubation at 37°C, then growth at OD650, average of 3 assays ± SD
[7] = F. nucleatum ATCC 25586, 90 min peptide/bacteria incubation, CFU on agar, ≥ 99.9% reduction, average of 3 assays ± SD
[8] = S. mutans Ingbritt, 90 min peptide/bacteria incubation, CFU on agar, ≥ 99.9% reduction, average of 3 assays ± SD
[9] = sheep RBCs 2 × 10^7 cells/mL in PBS pH 7.4, 2 h at 37°C, 5% CO2, A405, linear regression, maximum peptide concentration = 1000 µM

Compound	MIC (F. nucleatum ATCC 25586 [1]; [5])	MIC (S. mutans Ingbritt [2]; [6])	MBC (F. nucleatum ATCC 25586 [3]; [7])	MBC (S. mutans Ingbritt [4]; [8])	MIC (S. mutans Ingbritt [2]; Ingbritt, 24 h)	MBC (S. mutans Ingbritt [4]; Ingbritt)	Therapeutic Index (hemolysis) (sheep red blood cells)	Hemolysis (HC50) (sheep red blood cells; pH 7.4)	MIC (F. nucleatum ATCC 25586 [1]; ATCC 25586, 24 h)	MBC (F. nucleatum ATCC 25586 [3]; ATCC 25586)	MIC (F. nucleatum ATCC 25586 [1]; F. nucleatum ATCC 25586, 2.5 × 10^5 cells/well, 90 min peptide/bacteria incubation at 37°C, then growth at OD650, average of 3 assays ± SD, listed as Native)	MIC (S. mutans Ingbritt [2]; S. mutans Ingbritt, 90 min peptide/bacteria incubation at 37°C, then growth at OD650, average of 3 assays ± SD, listed as Native)	MBC (F. nucleatum ATCC 25586 [3]; F. nucleatum ATCC 25586, 90 min peptide/bacteria incubation, CFU on agar, ≥ 99.9% reduction, average of 3 assays ± SD, listed as Native)	MBC (S. mutans Ingbritt [4]; S. mutans Ingbritt, 90 min peptide/bacteria incubation, CFU on agar, ≥ 99.9% reduction, average of 3 assays ± SD, listed as Native)	Hemolysis (HC50) (sheep red blood cells; [9])
CC(=O)NC(C)(C)C(=O)N1CCC[C@H]1C(=O)NC(C)(C)C(=O)N[C@@H](C)C(=O)NC(C)(C)C(=O)N[C@@H](C)C(=O)N[C@@H](CCC(N)=O)C(=O)NC(C)(C)C(=O)N[C@H](C(=O)NC(C)(C)C(=O)NCC(=O)N[C@@H](CC(C)C)C(=O)NC(C)(C)C(=O)N1CCC[C@H]1C(=O)N[C@H](C(=O)NC(C)(C)C(=O)NC(C)(C)C(=O)N[C@@H](CCC(=O)O)C(=O)N[C@@H](CCC(N)=O)C(=O)N[C@H](CO)Cc1ccccc1)C(C)C)C(C)C [Alamethicin] (Ac-[Aib]P[Aib]A[Aib]AQ[Aib]V[Aib]GL[Aib]PV[Aib][Aib]EQ[Phe(ol)]; N-terminus assumed)	22.6 ± 12.7 µM (≈ 44.4 µg/mL)	29.4 ± 8.2 µM (≈ 57.8 µg/mL)	18.0 ± 3.9 µM (≈ 35.4 µg/mL)	39.8 ± 0.3 µM (≈ 78.2 µg/mL)	–	–	–	–	–	–	–	–	–	–	–
CC[C@H](C)[C@H](NC(=O)CN)C(=O)NCC(=O)N[C@@H](CCN)C(=O)N[C@@H](Cc1ccccc1)C(=O)N[C@@H](CC(C)C)C(=O)N[C@@H](Cc1c[nH]cn1)C(=O)N[C@@H](CO)C(=O)N[C@@H](C)C(=O)N[C@@H](CCN)C(=O)N[C@@H](CCN)C(=O)N[C@@H](Cc1ccccc1)C(=O)NCC(=O)N[C@@H](CCN)C(=O)N[C@@H](C)C(=O)N[C@@H](Cc1ccccc1)C(=O)N[C@H](C(=O)NCC(=O)N[C@@H](CCC(=O)O)C(=O)N[C@H](C(=O)N[C@@H](CCSC)C(=O)N[C@@H](CC(N)=O)C(=O)N[C@@H](CO)C(N)=O)[C@@H](C)CC)C(C)C [Magainin-Dab] (H-GIG[Dab]FLHSA[Dab][Dab]FG[Dab]AFVGEIMNS-NH2; N-terminus assumed)	6.3 ± 0.5 µM (≈ 14.8 µg/mL)	–	–	–	>200^c μM	>200^c μM	>182 : 1	>1000 µM	–	–	–	–	–	–	–
CC[C@H](C)[C@H](NC(=O)CN)C(=O)NCC(=O)N[C@@H](CN)C(=O)N[C@@H](Cc1ccccc1)C(=O)N[C@@H](CC(C)C)C(=O)N[C@@H](Cc1c[nH]cn1)C(=O)N[C@@H](CO)C(=O)N[C@@H](C)C(=O)N[C@@H](CN)C(=O)N[C@@H](CN)C(=O)N[C@@H](Cc1ccccc1)C(=O)NCC(=O)N[C@@H](CN)C(=O)N[C@@H](C)C(=O)N[C@@H](Cc1ccccc1)C(=O)N[C@H](C(=O)NCC(=O)N[C@@H](CCC(=O)O)C(=O)N[C@H](C(=O)N[C@@H](CCSC)C(=O)N[C@@H](CC(N)=O)C(=O)N[C@@H](CO)C(N)=O)[C@@H](C)CC)C(C)C [Magainin-Dap] (H-GIG[Dap]FLHSA[Dap][Dap]FG[Dap]AFVGEIMNS-NH2; N-terminus assumed)	–	–	–	–	>200^c μM	>200^c μM	>67 : 1	>1000 µM	18.4±9.7^c μM	29.7±0.4^c μM	–	–	–	–	–
GIGKFLHSAKKFGKAFVGEIMNS-NH2 [Magainin II]	10.2 ± 1.5 µM	109.3 ± 20.4 µM	8.1 ± 1.3 µM	109 ± 20.2 µM	–	–	–	–	–	–	10.1 ± 0.6 µM	123.4 ± 9.2 µM	7.3 ± 1.0 µM	117.1 ± 2.3 µM	479.5 ± 42.9 µM
GIGRFLHSARRFGRAFVGEIMNS-NH2 [Magainin-Arg]	–	–	–	–	41.8±6.8^c μM	37.3±1.9^c μM	100.8 : 1	251.9 ± 48.2 µM	2.5±0.3^c μM	2.5±0.8^c μM	–	–	–	–	–
GIGXFLHSAXXFGXAFVGEIMNS-CONH2 [Magainin-Orn, magainin II analogue, all lysine residues substituted with ornithine]	13.1 ± 0.5 µM	>200^c μM	14.9 ± 0.2 µM	>200^c μM	–	–	126.5 : 1	–	–	–	–	–	–	–	721.1 ± 65.3 µM
